Structures can show the parent of a compound that is named as a salt.
What was measured:
[1] = Body weight and animal number of carrier mice, MKN45 xenograft test; type: in vivo, BALB/c immunodeficient nude mice; conditions: for Animal No. end: 7 at beginning
Protocol: To evaluate the in vivo anticancer efficacy of COMPOUND O, MKN45 human gastric-intestinal cancer xenograft models in immunodeficient nude mice was tested. All the mouse models are maintained in the Pharmacology Lab of ACEA Bio (Hangzhou) CO., Ltd. The BALB/c immunodeficient nude mice were purchased from Shanghai SLAC Laboratory Animal, certification number: SCXKA (Shanghai) 2007-0005. The mouse weight was 19±1 g. Only female mice were used in this study. The numbers of animals tested were as follow: 7 for each dose group, 7 for positive control group and 7 for negative control group.
Test Control. For negative control, each mouse was administered orally with the solvent only having the same volume and same concentration as those used in COMPOUND O test, 120 mg/kg once every other day (qod) for 18 days. […]
Preparation an Administration of Test Compounds. COMPOUND O was dissolved in 25% phospholipid (S75) and 75% polyvinylpyrrolidone (PL-PVP) then further diluted to 8 mg/ml in 0.9% NaCl aqueous solution. Different dosages of COMPOUND O between 120 mg/kg qod (once every other day) and 160 mg/kg q3d (once every 3 days) were used in the study.
All used materials including animal food, animal cage, supporting materials and apparatus contacted by animals, were high-pressure sterilized. Nude mice were maintained in laminar flow shelves under SPF condition. After tumor transplantation, mouse weight and tumor size in each compound dosage group were dynamically monitored and plotted. The tumor size was determined by measuring the major axis (a) and minor axis (b) of the tumor, and tumor volume was calculated according to the formula: […]

[2] = system: SKOV3 cells (human ovarian cancer cell line); assay: Inhibition of cell proliferation, xCelligence cell index; type: cell-based; conditions: SK-OV-3, 72 hr post compound treatment, read-out: calculated IC50
Excerpt: The biological activity of compounds disclosed herein was monitored and profiled using the Real-Time Cell Electronic Sensing (RT-CES®) system from ACEA Biosciences, Inc. The RT-CES system utilizes cell-substrate impedance technology to monitor cellular behavior inside tissue culture wells in a microtiter plate format. The technology features in the integration of molecular and cell biology with microelectronics and is based on the electronic detection of biological assay process. […]
For measurement of cell-substrate or cell-electrode impedance using RT-CES technology, microelectrodes having appropriate geometries are fabricated onto the bottom surfaces of microtiter plate or similar device, facing into the wells. […] When there are changes to the biological status of the cells analogue electronic readout signals are measured automatically and in real time, and are converted to digital signals for processing and for analysis. In a RT-CES system, a cell index (arbitrary representation of change in impedance) is automatically derived and provided based on measured electrode impedance values. […]
To quantify cell status based on the measured cell-electrode impedance, a parameter termed Cell Index is derived. Cell Index is a quantitative measure of the status of the cells in an electrode-containing well. […]

SMILES: CCc1ccc(Nc2nc(-c3c(C)nc4sccn34)cs2)cc1 [COMPOUND O, 2-(4-ethylphenyl)amino-4-(6-methylimidazo[2,1-b]thiazol-5-yl)-thiazole monohydrobromide]
- Animal weight (g) Beginning ([1]; 120 mg/kg ig × 9 qod): 19 g
- Animal weight (g) end ([1]; 120 mg/kg ig × 9 qod): 16.7 g
- Body weight of mice (g) 1 day ([1]; 120 mg/kg ig × 9 qod): 19.03 ± 0.76 g
- Body weight of mice (g) 4 day ([1]; 120 mg/kg ig × 9 qod): 19.53 ± 0.71 g
- Body weight of mice (g) 8 day ([1]; 120 mg/kg ig × 9 qod): 18.24 ± 1.10 g
- Body weight of mice (g) 11 day ([1]; 120 mg/kg ig × 9 qod): 18.21 ± 1.02 g
- Body weight of mice (g) 16 day ([1]; 120 mg/kg ig × 9 qod): 17.09 ± 1.09 g
- Body weight of mice (g) 18 day ([1]; 120 mg/kg ig × 9 qod): 16.71 ± 0.97 g
- Animal No. end ([1]; 120 mg/kg ig × 9 qod): 7/7
- Animal weight (g) Beginning ([1]; 160 mg/kg ig × 6 q3d): 18.3 g
- Animal weight (g) end ([1]; 160 mg/kg ig × 6 q3d): 15.7 g
- Body weight of mice (g) 1 day ([1]; 160 mg/kg ig × 6 q3d): 18.37 ± 0.66 g
- Body weight of mice (g) 4 day ([1]; 160 mg/kg ig × 6 q3d): 19.10 ± 0.73 g
- Body weight of mice (g) 8 day ([1]; 160 mg/kg ig × 6 q3d): 17.33 ± 1.52 g
- Body weight of mice (g) 11 day ([1]; 160 mg/kg ig × 6 q3d): 17.15 ± 1.33 g
- Body weight of mice (g) 16 day ([1]; 160 mg/kg ig × 6 q3d): 16.43 ± 1.47 g
- Body weight of mice (g) 18 day ([1]; 160 mg/kg ig × 6 q3d): 15.73 ± 1.31 g
- Animal No. end ([1]; 160 mg/kg ig × 6 q3d): 7/3
- IC50 [2]: 5.47 nM

SMILES: COc1cc([C@@H]2c3cc4c(cc3[C@@H](O[C@@H]3O[C@@H]5CO[C@@H](C)O[C@H]5[C@H](O)[C@H]3O)[C@H]3COC(=O)[C@H]23)OCO4)cc(OC)c1O [Etoposide, reference compound]
- Animal weight (g) Beginning ([1]; 50 mg/kg ig × 6 q3d): 18.9 g
- Animal weight (g) end ([1]; 50 mg/kg ig × 6 q3d): 16.9 g
- Body weight of mice (g) 1 day ([1]; 50 mg/kg ig × 6 q3d): 18.94 ± 0.92 g
- Body weight of mice (g) 4 day ([1]; 50 mg/kg ig × 6 q3d): 19.57 ± 1.16 g
- Body weight of mice (g) 8 day ([1]; 50 mg/kg ig × 6 q3d): 17.17 ± 0.85 g
- Body weight of mice (g) 11 day ([1]; 50 mg/kg ig × 6 q3d): 17.26 ± 1.24 g
- Body weight of mice (g) 16 day ([1]; 50 mg/kg ig × 6 q3d): 16.94 ± 0.91 g
- Body weight of mice (g) 18 day ([1]; 50 mg/kg ig × 6 q3d): 16.93 ± 0.75 g
- Animal No. end ([1]; 50 mg/kg ig × 6 q3d): 7/7

SMILES: CC(=O)O[C@H]1C(=O)[C@@]2(C)[C@H]([C@H](OC(=O)c3ccccc3)[C@]3(O)C[C@H](OC(=O)[C@H](O)[C@@H](NC(=O)c4ccccc4)c4ccccc4)C(C)=C1C3(C)C)[C@]1(OC(C)=O)CO[C@@H]1C[C@@H]2O [paclitaxel]
- IC50 [2]: 5.34 nM

— patent publication US20110207751A1, “HETEROCYCLIC COMPOUNDS AND USES AS ANTICANCER AGENTS” (priority 2010, published 2011)
